According to patent US8084064B2, “Antiwrinkle agent and skin cosmetic composition” (Kao Corporation, priority 2004, dated 2011):
“Also recorded” adds a separate entry of the source.

Tested on: Hartley guinea pigs (females)
Test: Safety (sensitization) maximization test
Format: in vivo, guinea pig
Conditions: for MR: Mean score (average of reaction scores): erythema score 0-3
Procedure: Safety (sensitization) was evaluated using a maximization test.
An area of the skin over the scapula measuring 4×6 cm^2 was shaved in Hartley guinea pigs (females) having body weights of 350 to 400 g, and two rows of three intradermal injections per row were made in the order indicated below.
1) 0.05 mL aliquots of Freund's complete adjuvant (hereinafter, to abbreviated as FCA solution) were intradermally injected at two locations on the left and right sides.
2) 0.05 mL aliquots of an olive oil solution containing 10% of a sclareol derivative obtained in the aforementioned producing examples or sclareol were intradermally injected at two locations on the left and right sides.
3) 0.05 mL aliquots of an emulsified solution obtained by adding an equal volume of sterile water to an FCA solution containing 20% sclareol or sclareol derivative obtained in the aforementioned production examples were intradermally injected at two locations on the left and right sides.
The same sites on the animals were shaved one week after these procedures, and vaseline containing 10% sodium lauryl sulfate was rubbed onto the skin to induce mild inflammation. 24 hours after rubbing, 0.2 mL of olive oil solutions containing 10% sclareol derivative sample of the present invention or sclareol were applied to a piece of gauze, which was then affixed to cover the skin for 48 hours. The abdomens of the animals were shaved on the 21st day after intradermal injection, and olive oil solutions containing 5% and 10% of a sclareol derivative sample of the present invention, or an olive oil solution containing 5% of a sclareol sample were affixed to cover the skin for 24 hours.

[1] = challenge concentration 5% in olive oil, After 24 Hours
[2] = challenge concentration 5% in olive oil, After 48 Hours
[3] = challenge concentration 10% in olive oil, After 24 Hours
[4] = challenge concentration 10% in olive oil, After 48 Hours

Row | Molecule | PR: Sensitization rate (Number of positive animals/Number of animals used) [1] | MR: Mean score (average of reaction scores) [1] | PR: Sensitization rate (Number of positive animals/Number of animals used) [2] | MR: Mean score (average of reaction scores) [2] | Sensitization (result in words) (maximization test, guinea pigs) | PR: Sensitization rate (Number of positive animals/Number of animals used) [3] | MR: Mean score (average of reaction scores) [3] | PR: Sensitization rate (Number of positive animals/Number of animals used) [4] | MR: Mean score (average of reaction scores) [4]
1 | C=C[C@@](C)(O)CCC1[C@@]2(C)CCCC(C)(C)C2CC[C@@]1(C)O (some centres unmarked) [Sclareol, sclareol, reference compound] | 4/10 | 0.4 | 4/10 | 0.4 | has skin sensitizing properties; also recorded: sensitization being confirmed | – | – | – | –
2 | CC[C@](C)(O)CCC1[C@@]2(C)CCCC(C)(C)C2CC[C@@]1(C)O (some centres unmarked) [Hydrogenated sclareol, hydrogenated sclareol] | 0, (0) | 0, (0) | 0, (0) | 0, (0) | – | 0, (0) | 0, (0) | 0, (0) | 0, (0)
3 | monoacetylated sclareol | 0, (0) | 0, (0) | 0, (0) | 0, (0) | – | 0, (0) | 0, (0) | 0, (0) | 0, (0)
4 | C=C[C@@](C)(CC[C@@H]1[C@@]2(C)CCCC(C)(C)[C@@H]2CC[C@@]1(C)OC(C)=O)OC(C)=O [Diacetylated sclareol, diacetylated sclareol] | 0, (0) | 0, (0) | 0, (0) | 0, (0) | – | 0, (0) | 0, (0) | 0, (0) | 0, (0)
